Results reported in paper PMC6199744, “Development of Chemical Proteomics for the Folateome and Analysis of the Kinetoplastid Folateome” (ACS Infectious Diseases, 2018).
Read-outs that look alike come from different tables or passages of the source.

How the values were obtained:
Assay type in all cases: binding
[1] = molecular target: T1, HeLa cell extract proteins (Homo sapiens, UniProt O75352)
T1 construct: endogenous in cells; host or cells: HeLa cell extract
T1 sequence (O75352 1-247): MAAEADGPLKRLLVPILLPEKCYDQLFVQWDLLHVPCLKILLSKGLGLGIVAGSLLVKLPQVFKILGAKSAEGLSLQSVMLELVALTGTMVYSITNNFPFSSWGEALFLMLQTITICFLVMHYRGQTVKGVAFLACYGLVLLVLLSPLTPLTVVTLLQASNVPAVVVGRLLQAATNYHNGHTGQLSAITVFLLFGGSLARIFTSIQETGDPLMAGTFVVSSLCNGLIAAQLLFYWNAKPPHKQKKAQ

[2] = molecular target: T2, HeLa cell extract proteins (Homo sapiens, UniProt P04843)
T2 construct: endogenous in cells; host or cells: HeLa cell extract
T2 sequence (P04843 24-607): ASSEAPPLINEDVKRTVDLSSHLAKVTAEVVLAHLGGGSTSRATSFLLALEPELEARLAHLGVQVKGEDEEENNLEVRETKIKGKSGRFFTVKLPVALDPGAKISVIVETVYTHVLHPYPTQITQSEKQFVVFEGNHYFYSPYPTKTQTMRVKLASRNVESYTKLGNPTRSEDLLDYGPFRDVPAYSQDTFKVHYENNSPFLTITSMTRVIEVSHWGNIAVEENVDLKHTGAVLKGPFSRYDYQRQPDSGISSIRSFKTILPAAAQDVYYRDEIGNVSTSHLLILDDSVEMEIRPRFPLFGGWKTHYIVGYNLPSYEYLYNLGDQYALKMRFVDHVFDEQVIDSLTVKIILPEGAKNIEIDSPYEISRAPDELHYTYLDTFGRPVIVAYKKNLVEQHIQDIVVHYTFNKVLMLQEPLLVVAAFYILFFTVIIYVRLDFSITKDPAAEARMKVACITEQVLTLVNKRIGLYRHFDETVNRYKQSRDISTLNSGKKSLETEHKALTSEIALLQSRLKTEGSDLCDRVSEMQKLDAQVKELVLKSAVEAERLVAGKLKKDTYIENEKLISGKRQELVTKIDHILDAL

[3] = molecular target: T3, HeLa cell extract proteins (Homo sapiens, UniProt P05023)
T3 construct: endogenous in cells; host or cells: HeLa cell extract

[4] = molecular target: T4, HeLa cell extract proteins (Homo sapiens, UniProt P61981)
T4 construct: endogenous in cells; host or cells: HeLa cell extract
T4 sequence (P61981 1-247): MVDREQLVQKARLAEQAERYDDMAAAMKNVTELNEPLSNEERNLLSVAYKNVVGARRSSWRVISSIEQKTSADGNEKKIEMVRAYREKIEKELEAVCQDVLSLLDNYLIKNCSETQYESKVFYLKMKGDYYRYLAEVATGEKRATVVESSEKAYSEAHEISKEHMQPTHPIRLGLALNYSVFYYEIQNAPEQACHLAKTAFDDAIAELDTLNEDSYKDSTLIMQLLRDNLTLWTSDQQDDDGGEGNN

[5] = molecular target: T5, HeLa cell extract proteins (Homo sapiens, UniProt P68104)
T5 construct: endogenous in cells; host or cells: HeLa cell extract
T5 sequence (P68104 1-462): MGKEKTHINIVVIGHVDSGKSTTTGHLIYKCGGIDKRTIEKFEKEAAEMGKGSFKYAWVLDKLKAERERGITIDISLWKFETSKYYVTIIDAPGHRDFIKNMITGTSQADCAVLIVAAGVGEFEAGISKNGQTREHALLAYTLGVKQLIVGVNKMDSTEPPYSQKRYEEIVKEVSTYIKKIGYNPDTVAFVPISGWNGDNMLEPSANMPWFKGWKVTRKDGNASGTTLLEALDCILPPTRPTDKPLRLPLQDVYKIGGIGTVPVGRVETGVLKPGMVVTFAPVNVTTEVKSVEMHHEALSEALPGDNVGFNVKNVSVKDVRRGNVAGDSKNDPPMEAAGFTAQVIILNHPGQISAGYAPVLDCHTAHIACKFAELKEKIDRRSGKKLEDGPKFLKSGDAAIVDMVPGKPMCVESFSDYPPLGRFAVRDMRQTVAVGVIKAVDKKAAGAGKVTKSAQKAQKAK

[6] = molecular target: T6, HeLa cell extract proteins (Homo sapiens, UniProt Q01105)
T6 construct: endogenous in cells; host or cells: HeLa cell extract
T6 sequence (Q01105 whole entry): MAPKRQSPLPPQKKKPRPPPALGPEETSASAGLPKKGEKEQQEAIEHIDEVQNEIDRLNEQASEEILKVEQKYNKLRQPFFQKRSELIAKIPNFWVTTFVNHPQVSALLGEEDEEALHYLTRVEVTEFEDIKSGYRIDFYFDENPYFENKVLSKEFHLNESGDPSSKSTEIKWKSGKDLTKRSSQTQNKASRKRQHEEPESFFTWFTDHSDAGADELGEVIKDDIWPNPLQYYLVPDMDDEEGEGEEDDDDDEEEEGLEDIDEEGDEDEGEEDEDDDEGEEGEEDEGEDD

[7] = molecular target: T7, HeLa cell extract proteins (Homo sapiens, UniProt Q14764)
T7 construct: endogenous in cells; host or cells: HeLa cell extract
T7 sequence (Q14764 whole entry): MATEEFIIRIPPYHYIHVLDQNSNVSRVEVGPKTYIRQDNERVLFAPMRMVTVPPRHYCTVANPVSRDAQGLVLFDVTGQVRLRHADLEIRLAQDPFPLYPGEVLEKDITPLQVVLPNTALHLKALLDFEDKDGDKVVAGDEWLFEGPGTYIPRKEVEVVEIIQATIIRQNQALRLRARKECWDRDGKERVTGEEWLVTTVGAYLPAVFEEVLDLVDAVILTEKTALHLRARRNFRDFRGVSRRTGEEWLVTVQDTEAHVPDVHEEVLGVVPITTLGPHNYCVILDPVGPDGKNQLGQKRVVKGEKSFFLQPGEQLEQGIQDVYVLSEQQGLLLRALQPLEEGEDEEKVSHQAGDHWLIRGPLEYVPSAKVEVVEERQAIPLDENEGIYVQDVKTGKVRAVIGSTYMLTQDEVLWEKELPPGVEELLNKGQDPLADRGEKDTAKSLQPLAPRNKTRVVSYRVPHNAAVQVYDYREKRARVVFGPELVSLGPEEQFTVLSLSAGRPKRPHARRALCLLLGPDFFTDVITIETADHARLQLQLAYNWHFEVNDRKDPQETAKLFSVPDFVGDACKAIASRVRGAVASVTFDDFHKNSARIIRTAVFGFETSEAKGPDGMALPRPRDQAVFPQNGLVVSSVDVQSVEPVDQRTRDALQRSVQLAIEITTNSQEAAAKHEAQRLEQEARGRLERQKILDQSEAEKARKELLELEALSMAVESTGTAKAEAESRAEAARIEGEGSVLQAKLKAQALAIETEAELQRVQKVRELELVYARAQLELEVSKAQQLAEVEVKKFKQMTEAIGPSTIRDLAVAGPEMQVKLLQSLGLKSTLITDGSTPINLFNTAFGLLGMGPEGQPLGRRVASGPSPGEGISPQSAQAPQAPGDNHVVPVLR

[8] = molecular target: T8, HeLa cell extract proteins (Homo sapiens, UniProt Q92947)
T8 construct: endogenous in cells; host or cells: HeLa cell extract
T8 sequence (Q92947 45-438): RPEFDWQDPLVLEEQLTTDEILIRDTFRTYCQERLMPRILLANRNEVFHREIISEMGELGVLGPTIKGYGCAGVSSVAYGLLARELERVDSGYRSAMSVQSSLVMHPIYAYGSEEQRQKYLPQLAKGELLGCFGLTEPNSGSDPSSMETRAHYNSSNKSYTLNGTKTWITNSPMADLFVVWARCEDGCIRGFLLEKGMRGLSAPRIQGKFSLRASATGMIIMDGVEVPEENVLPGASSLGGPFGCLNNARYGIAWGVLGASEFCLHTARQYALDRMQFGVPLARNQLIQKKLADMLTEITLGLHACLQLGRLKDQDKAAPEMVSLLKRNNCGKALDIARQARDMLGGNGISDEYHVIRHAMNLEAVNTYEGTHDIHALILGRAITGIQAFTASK

[9] = HeLa, protein YWHAG (14-3-3 PROTEIN GAMMA.)
[10] = HeLa, protein SET (ISOFORM 1 OF PROTEIN SET.)

| Structure (SMILES) | fold changes relative to vehicle control ([1]; HeLa, protein MPDU1) | fold changes relative to vehicle control ([2]; HeLa, protein RPN1) | fold changes relative to vehicle control ([3]; protein ATP1A1, HeLa) | fold changes relative to vehicle control ([4]; protein YWHAG, HeLa) | fold changes relative to vehicle control ([5]; HeLa, captured protein EEF1A1) | fold changes relative to vehicle control ([6]; HeLa, captured protein SET) | fold changes relative to vehicle control ([7]; HeLa, protein MVP) | fold changes relative to vehicle control ([8]; HeLa, captured protein GCDH) | fold changes relative to vehicle control ([1]; protein MPDU1, HeLa) | fold changes relative to vehicle control ([2]; protein RPN1, HeLa) | fold changes relative to vehicle control [4, 9] | fold changes relative to vehicle control ([5]; protein EEF1A1, HeLa) | fold changes relative to vehicle control [6, 10] | fold changes relative to vehicle control ([8]; captured protein GCDH, HeLa) | further results |
| --- | --- | --- | --- | --- | --- | --- | --- | --- | --- | --- | --- | --- | --- | --- | --- |
| Nc1nc2c(c(=O)[nH]1)N(C=O)C(CNc1ccc(C(=O)N[C@@H](CCC(=O)O)C(=O)O)cc1)CN2 (some centres unmarked) [LEU, leucovorin] | 0.93 | 0.88 | 0.76 | 1.02 | 1.01 | 0.98 | 0.99 | 0.96 |  |  |  |  |  |  |  |
| Nc1nc2[nH]cc(CCc3ccc(C(=O)N[C@@H](CCC(=O)O)C(=O)O)cc3)c2c(=O)[nH]1 [PTX, pemetrexed] |  |  |  |  |  |  |  |  |  |  |  |  |  |  | fold changes relative to vehicle control [1]: 1; fold changes relative to vehicle control [2]: 0.96; fold changes relative to vehicle control [3]: 0.96; fold changes relative to vehicle control [4]: 1.09; fold changes relative to vehicle control [5]: 0.93; fold changes relative to vehicle control [6]: 1.08; fold changes relative to vehicle control [7]: 0.98; fold changes relative to vehicle control [8]: 0.75 |
| CCCCCCOc1ccc(Cc2cnc(N)nc2N)cc1 [compound 1] |  |  | 0.73 |  |  |  | 1.06 |  | 1.04 | 1.09 | 1.45 fold | 1.17 | 2.11 fold | 0.91 |  |
| CCCCCCOc1cccc(Cc2cnc(N)nc2N)c1 [compound 2] |  |  | 1.25 |  |  |  | 1.23 |  | 0.89 | 1.28 | 2.09 fold | 1.47 | 3.28 fold | 0.95 |  |
| Nc1nc2cccc(-c3ccccc3)c2n1Cc1ccc(Cl)c(Cl)c1 [compound 3] |  |  | 0.94 |  |  |  | 1.02 |  | 1.05 | 1.02 | 0.97 fold | 0.97 | 0.9 fold | 0.98 |  |
| NCCOCCOCC(=O)Nc1nc2ncc(CNc3ccc(C(=O)NC(CCC(=O)O)C(=O)O)cc3)nc2c(=O)[nH]1 (centres unmarked) [compound 6] | 1.08 | 0.96 | 1.05 | 1.26 | 0.99 | 1.16 | 0.96 | 0.62 |  |  |  |  |  |  |  |
| NCCCNc1ccc(C(=O)NC(CCC(=O)O)C(=O)O)cc1 (centres unmarked) [compound 7] | 0.99 | 0.94 | 0.92 | 0.91 | 0.93 | 0.84 | 1.28 | 0.98 |  |  |  |  |  |  |  |
